From ChEMBL document CHEMBL1157943, “Oblongifolins A-D, polyprenylated benzoylphloroglucinol derivatives from Garcinia oblongifolia” (J Nat Prod, 2006)
Calls of active or inactive are those of the source. The rule behind the calls is not given here.

Assays:
[1] = Inhibition of tubulin assembly at 10 mg/ml
[2] = Inhibition of microtubule disassembly
[3] = Inhibition of tubulin assembly
[4] = Inhibition of microtubule disassembly at 10 mg/ml

CC(C)=CCC/C(C)=C/C[C@H]1C[C@]2(CC=C(C)C)C(=O)[C@@](CC=C(C)C)(C(=O)C(C(=O)c3ccc(O)c(O)c3)=C2O)C1(C)C
inhibition [1]: 41% | Activity [2]: inactive

C=C(C)[C@@H](CC=C(C)C)C[C@@]12C[C@@H](CC=C(C)C)C(C)(C)[C@@](CC=C(C)C)(C(=O)C(C(=O)c3ccc(O)c(O)c3)=C1O)C2=O [GARCINOL]
IC50 [3]: 97 µM | inhibition [4]: 46%

CC(C)=CCC/C(C)=C/C[C@@H]1C[C@@]2(C/C=C(\C)CCC=C(C)C)C(=O)[C@](CC=C(C)C)(C(=O)C(C(=O)c3ccc(O)c(O)c3)=C2O)C1(C)C [GUTTIFERONE B]
IC50 [3]: 53 µM | Activity [2]: inactive

CC(C)=CCC/C(C)=C/C[C@@H]1C[C@]2(CC=C(C)C)C(=O)[C@@](CC=C(C)C)(C(=O)C(C(=O)c3ccc(O)c(O)c3)=C2O)C1(C)C [OBLONGIFOLIN B]
IC50 [3]: 69 µM | inhibition [4]: 7%

CC(C)=CCC/C(C)=C/C[C@@H]1C[C@]2(CC=C(C)C)C(=O)[C@@](CC=C(C)C)(C(=O)C(C(=O)c3ccc(O)c(O)c3)=C2O)[C@@]1(C)CCC=C(C)C [OBLONGIFOLIN C]
IC50 [3]: 53 µM | Activity [2]: inactive

CC(C)=CCC/C(C)=C/C[C@H]1C[C@]2(C/C=C(\C)CCC=C(C)C)C(=O)[C@@](CC=C(C)C)(C(=O)C(C(=O)c3ccc(O)c(O)c3)=C2O)C1(C)C [OBLONGIFOLIN D]
IC50 [3]: 92 µM | Activity [2]: inactive

CC(=O)O[C@H]1C(=O)[C@@]2(C)[C@H]([C@H](OC(=O)c3ccccc3)[C@]3(O)C[C@H](OC(=O)[C@H](O)[C@@H](NC(=O)c4ccccc4)c4ccccc4)C(C)=C1C3(C)C)[C@]1(OC(C)=O)CO[C@@H]1C[C@@H]2O [PACLITAXEL]
Activity [3]: inactive | IC50 [2]: 500 nM
